From ChEMBL document CHEMBL3046044, “Evaluation of mefenamic acid mutual prodrugs” (Med Chem Res, 2013)
Each block holds one molecule with its values, some of them ahead of it.

Tests used:
Rattus norvegicus [1] = assay: Antioxidant activity in Rattus norvegicus (rat) stomach assessed as effect on catalase level measured per mg of protein at 1240 mg/kg, po after 12 hr by spectrophotometric analysis (reference value: 26.055 +/- 4.669 U); format: functional
[2] = Half life in isotonic phosphate buffer at 10 mg at pH 7.4; format: physicochemical
[3] = Solubility of the compound in chloroform at 10 mg; format: physicochemical
Rattus norvegicus [4] = assay: Anti-inflammatory activity in Rattus norvegicus Wistar albino (rat) assessed as inhibition of carrageenan-induced paw edema at 124 mg/kg, po measured at 4 hr relative to control; format: functional
Rattus norvegicus [5] = assay: Increase in hexosamine level in Rattus norvegicus (rat) stomach at 1240 mg/kg, po after 12 hr (reference value: 122.323 +/- 4.639 ug/ml); format: functional
Rattus norvegicus [6] = assay: Antioxidant activity in Rattus norvegicus (rat) stomach assessed as effect on GSH level measured per 100 g of protein at 1240 mg/kg, po after 12 hr by Ellman's method (reference value: 350.735 +/- 42.887 uM); format: functional
[7] = n-Octanol-phosphate buffer partition coefficient, log P of the compound at pH 7.4 by HPLC method; format: physicochemical
Rattus norvegicus [8] = assay: Anti-inflammatory activity in Rattus norvegicus Wistar albino (rat) assessed as inhibition of carrageenan-induced paw edema at 124 mg/kg, po measured at 24 hr relative to control; format: functional
[9] = Solubility of the compound in dichloromethane at 10 mg; format: physicochemical
[10] = Solubility of the compound in benzene at 10 mg; format: physicochemical
Rattus norvegicus [11] = assay: Reduction of gastric wall mucus level in Rattus norvegicus (rat) stomach measured per mg of protein at 1240 mg/kg, po after 12 hr by alcian blue staining (reference value: 285.680 +/- 3.348 ug); format: functional
Rattus norvegicus [12] = assay: Inhibition of superoxide dismutase level in Rattus norvegicus (rat) stomach at 1240 mg/kg, po after 12 hr (reference value: 37.096 +/- 7.335%); format: functional
[13] = Half life in hydrochloric acid buffer at 10 mg at pH 1.2; format: physicochemical
Rattus norvegicus [14] = assay: Effect on protein level in Rattus norvegicus (rat) stomach at 1240 mg/kg, po after 12 hr by Bradford method (reference value: 42.5 +/- 5.773 ug/ml); format: functional
[15] = Solubility of the compound in methanol at 10 mg; format: physicochemical
Rattus norvegicus [16] = assay: Anti-inflammatory activity in Rattus norvegicus Wistar albino (rat) assessed as inhibition of carrageenan-induced paw edema at 124 mg/kg, po measured at 6 hr relative to control; format: functional
Mus musculus = assay: Analgesic activity in po dosed Mus musculus Swiss albino (mouse) assessed as inhibition of acetic acid-induced writhing administered 1 hr prior to acetic acid challenge measured for 20 min relative to control; format: functional
[17] = Solubility of the compound in 0.1 N sodium hydroxide at 10 mg; format: physicochemical
Rattus norvegicus [18] = assay: Antioxidant activity in Rattus norvegicus (rat) stomach assessed as reduction of lipid peroxidation measured MDA level per mg of protein at 1260 mg/kg, po after 12 hr by TBARS assay (reference value: 4.388 +/- 0.404 nM); format: functional
[19] = Half life in Homo sapiens (human) 80% plasma at 10 mg at pH 7.4; format: ADME, cell-free; conditions: 80% human plasma
[20] = Solubility of the compound in ethanol at 10 mg; format: physicochemical
Rattus norvegicus [21] = assay: Ulcerogenicity in Rattus norvegicus (rat) stomach assessed as ulcer index at 1240 mg/kg, po after 12 hr (reference value: 3.413 +/- 2.160 no unit); format: toxicity, organism-based; design: dose 1240 mg/kg, route oral; conditions: in vivo
Rattus norvegicus [22] = assay: Anti-inflammatory activity in Rattus norvegicus Wistar albino (rat) assessed as inhibition of carrageenan-induced paw edema at 124 mg/kg, po measured at 3 hr relative to control; format: functional
[23] = Solubility of the compound in 0.1 N hydrochloric acid at 10 mg; format: physicochemical
Rattus norvegicus [24] = assay: Anti-inflammatory activity in Rattus norvegicus Wistar albino (rat) assessed as inhibition of carrageenan-induced paw edema at 80 mg/kg, po measured at 3 hr relative to control; format: functional
Rattus norvegicus [25] = assay: Effect on protein level in Rattus norvegicus (rat) stomach at 800 mg/kg, po after 12 hr by Bradford method (reference value: 42.5 +/- 5.773 ug/ml); format: functional
Rattus norvegicus [26] = assay: Anti-inflammatory activity in Rattus norvegicus Wistar albino (rat) assessed as inhibition of carrageenan-induced paw edema at 80 mg/kg, po measured at 24 hr relative to control; format: functional
Rattus norvegicus [27] = assay: Anti-inflammatory activity in Rattus norvegicus Wistar albino (rat) assessed as inhibition of carrageenan-induced paw edema at 80 mg/kg, po measured at 6 hr relative to control; format: functional
Rattus norvegicus [28] = assay: Antioxidant activity in Rattus norvegicus (rat) stomach assessed as effect on GSH level measured per 100 g of protein at 800 mg/kg, po after 12 hr by Ellman's method (reference value: 350.735 +/- 42.887 uM); format: functional
Rattus norvegicus [29] = assay: Reduction of gastric wall mucus level in Rattus norvegicus (rat) stomach measured per mg of protein at 800 mg/kg, po after 12 hr by alcian blue staining (reference value: 285.680 +/- 3.348 ug); format: functional
Rattus norvegicus [30] = assay: Inhibition of superoxide dismutase level in Rattus norvegicus (rat) stomach at 800 mg/kg, po after 12 hr (reference value: 37.096 +/- 7.335%); format: functional
Rattus norvegicus [31] = assay: Antioxidant activity in Rattus norvegicus (rat) stomach assessed as effect on catalase level measured per mg of protein at 800 mg/kg, po after 12 hr by spectrophotometric analysis (reference value: 26.055 +/- 4.669 U); format: functional
Rattus norvegicus [32] = assay: Anti-inflammatory activity in Rattus norvegicus Wistar albino (rat) assessed as inhibition of carrageenan-induced paw edema at 80 mg/kg, po measured at 4 hr relative to control; format: functional
Rattus norvegicus [33] = assay: Increase in hexosamine level in Rattus norvegicus (rat) stomach at 800 mg/kg, po after 12 hr (reference value: 122.323 +/- 4.639 ug/ml); format: functional
Rattus norvegicus [34] = assay: Ulcerogenicity in Rattus norvegicus (rat) stomach assessed as ulcer index at 800 mg/kg, po after 12 hr (reference value: 3.413 +/- 2.160 no unit); format: toxicity, organism-based; design: dose 800 mg/kg, route oral; conditions: in vivo
Rattus norvegicus [35] = assay: Antioxidant activity in Rattus norvegicus (rat) stomach assessed as reduction of lipid peroxidation measured MDA level per mg of protein at 1240 mg/kg, po after 12 hr by TBARS assay (reference value: 4.388 +/- 0.404 nM); format: functional
Rattus norvegicus [36] = assay: Increase in hexosamine level in Rattus norvegicus (rat) stomach at 1260 mg/kg, po after 12 hr (reference value: 122.323 +/- 4.639 ug/ml); format: functional
Rattus norvegicus [37] = assay: Inhibition of superoxide dismutase level in Rattus norvegicus (rat) stomach at 1260 mg/kg, po after 12 hr (reference value: 37.096 +/- 7.335%); format: functional
Rattus norvegicus [38] = assay: Antioxidant activity in Rattus norvegicus (rat) stomach assessed as effect on catalase level measured per mg of protein at 1260 mg/kg, po after 12 hr by spectrophotometric analysis (reference value: 26.055 +/- 4.669 U); format: functional
Rattus norvegicus [39] = assay: Anti-inflammatory activity in Rattus norvegicus Wistar albino (rat) assessed as inhibition of carrageenan-induced paw edema at 126 mg/kg, po measured at 3 hr relative to control; format: functional
Rattus norvegicus [40] = assay: Antioxidant activity in Rattus norvegicus (rat) stomach assessed as reduction of lipid peroxidation measured MDA level per mg of protein at 800 mg/kg, po after 12 hr by TBARS assay (reference value: 4.388 +/- 0.404 nM); format: functional
Rattus norvegicus [41] = assay: Anti-inflammatory activity in Rattus norvegicus Wistar albino (rat) assessed as inhibition of carrageenan-induced paw edema at 126 mg/kg, po measured at 4 hr relative to control; format: functional
Rattus norvegicus [42] = assay: Antioxidant activity in Rattus norvegicus (rat) stomach assessed as effect on GSH level measured per 100 g of protein at 1260 mg/kg, po after 12 hr by Ellman's method (reference value: 350.735 +/- 42.887 uM); format: functional
Rattus norvegicus [43] = assay: Anti-inflammatory activity in Rattus norvegicus Wistar albino (rat) assessed as inhibition of carrageenan-induced paw edema at 126 mg/kg, po measured at 6 hr relative to control; format: functional
Rattus norvegicus [44] = assay: Anti-inflammatory activity in Rattus norvegicus Wistar albino (rat) assessed as inhibition of carrageenan-induced paw edema at 126 mg/kg, po measured at 24 hr relative to control; format: functional
Rattus norvegicus [45] = assay: Effect on protein level in Rattus norvegicus (rat) stomach at 1260 mg/kg, po after 12 hr by Bradford method (reference value: 42.5 +/- 5.773 ug/ml); format: functional
Rattus norvegicus [46] = assay: Ulcerogenicity in Rattus norvegicus (rat) stomach assessed as ulcer index at 1260 mg/kg, po after 12 hr (reference value: 3.413 +/- 2.160 no unit); format: toxicity, organism-based; design: dose 1260 mg/kg, route oral; conditions: in vivo
Rattus norvegicus [47] = assay: Reduction of gastric wall mucus level in Rattus norvegicus (rat) stomach measured per mg of protein at 1260 mg/kg, po after 12 hr by alcian blue staining (reference value: 285.680 +/- 3.348 ug); format: functional

- half-life [2]: 7.11 h
- solubility [3]: soluble
- logD [7]: 5.45
- solubility [9]: soluble
- solubility [10]: soluble
- half-life [13]: 23.1 h
- solubility [15]: soluble
- solubility [17]: soluble
- half-life [19]: 1.14 h
- solubility [20]: soluble
- solubility [23]: Insoluble
Structure (SMILES): Cc1ccc(C(C)C)c(OC(=O)c2ccccc2Nc2cccc(C)c2C)c1
- Activity (Rattus norvegicus [1]): 23.089 U
- inhibition in vivo at 124 mg/kg (Rattus norvegicus [4]): 41.7%
- Activity (Rattus norvegicus [5]): 151.249 µg/mL
- Activity (Rattus norvegicus [6]): 286.765 µM
- inhibition in vivo at 124 mg/kg (Rattus norvegicus [8]): 62.4%
- Activity (Rattus norvegicus [11]): 190.256 µg
- inhibition in vivo at 1240 mg/kg (Rattus norvegicus [12]): 33.3%
- Activity (Rattus norvegicus [14]): 42.917 µg/mL
- inhibition in vivo at 124 mg/kg (Rattus norvegicus [16]): 51%
- inhibition (INH) (Mus musculus): 52.722%
- Activity (Rattus norvegicus [18]): 13.972 nM
- UI (Rattus norvegicus [21]): 6.833
- inhibition in vivo at 124 mg/kg (Rattus norvegicus [22]): 37.8%

- solubility [3]: soluble
- solubility [9]: soluble
- solubility [10]: soluble
- solubility [15]: soluble
- solubility [17]: soluble
- solubility [20]: soluble
- solubility [23]: Insoluble
Structure (SMILES): Cc1cccc(Nc2ccccc2C(=O)O)c1C [MEFENAMIC ACID]
- inhibition in vivo at 80 mg/kg (Rattus norvegicus [24]): 48.8%
- Activity (Rattus norvegicus [25]): 12.083 µg/mL
- inhibition (INH) (Mus musculus): 63.321%
- inhibition in vivo at 80 mg/kg (Rattus norvegicus [26]): 69.1%
- inhibition in vivo at 80 mg/kg (Rattus norvegicus [27]): 64.1%
- Activity (Rattus norvegicus [28]): 413.603 µM
- Activity (Rattus norvegicus [29]): 170.026 µg
- inhibition in vivo at 800 mg/kg (Rattus norvegicus [30]): 24.2%
- Activity (Rattus norvegicus [31]): 4.587 U
- inhibition in vivo at 80 mg/kg (Rattus norvegicus [32]): 50.6%
- Activity (Rattus norvegicus [33]): 139.224 µg/mL
- UI (Rattus norvegicus [34]): 10.867
- Activity (Rattus norvegicus [35]): 26.25 nM

- half-life [2]: 8.87 h
- solubility [3]: soluble
- logD [7]: 4.98
- solubility [9]: soluble
- solubility [10]: soluble
- half-life [13]: 20.8 h
- solubility [15]: soluble
- solubility [17]: soluble
- half-life [19]: 1.43 h
- solubility [20]: soluble
- solubility [23]: Insoluble
Structure (SMILES): Cc1cccc(Nc2ccccc2C(=O)OC2CC(C)CCC2C(C)C)c1C (stereo not drawn) [Mefenamic acid-menthol]
- Activity (Rattus norvegicus [36]): 144.445 µg/mL
- inhibition in vivo at 1260 mg/kg (Rattus norvegicus [37]): 29.2%
- Activity (Rattus norvegicus [38]): 23.807 U
- inhibition in vivo at 126 mg/kg (Rattus norvegicus [39]): 41.7%
- Activity (Rattus norvegicus [40]): 16.056 nM
- inhibition in vivo at 126 mg/kg (Rattus norvegicus [41]): 44.1%
- Activity (Rattus norvegicus [42]): 261.03 µM
- inhibition (INH) (Mus musculus): 55.184%
- inhibition in vivo at 126 mg/kg (Rattus norvegicus [43]): 51.6%
- inhibition in vivo at 126 mg/kg (Rattus norvegicus [44]): 67.1%
- Activity (Rattus norvegicus [45]): 32.083 µg/mL
- UI (Rattus norvegicus [46]): 5.117
- Activity (Rattus norvegicus [47]): 227.7692 µg
